Test system: binding of antibody secreted by hybridoma designated as 1F10 to immobilized glutathione-mercuric ion
Assay: Competitive inhibition ELISA: inhibition of antibody binding by metal ions
Settings: culture fluid of 1F10; at the highest concentration (final range 10^-1 M to 10^-6 M); 100000 µM
Protocol: Various methods were used to confirm that the antibodies secreted by hybridomas 4A10 and 1F10 were specific to mercuric ions. If the antibody being secreted by these hybridomas were specific, it should be possible to inhibit binding of the antibody to glutathione-mercuric ions by incubation in the presence of various concentrations of mercuric chloride. This competitive inhibition assay was conducted with antibody-containing culture fluids from the parental hybridomas 4A10 and 1F10.
Metal ions at the indicated concentrations were incubated with culture fluid from the monoclonal antibody in an enzyme-linked immunosorbent assay ("ELISA") plate. The absorbance at 405 nm was determined for each sample, and the percent inhibition of each metal ion concentration was determined by the following formula: Percent inhibition=(A405 of inhibitor - A405 of neg. control)/(A405 of pos. control - A405 of neg. control) [formula]
Various other metals were assayed for inhibition of binding of the monoclonal antibodies to mercuric ion. […] The absorbance at 405 nm was determined for each sample, and the percent inhibition of each metal ion concentration was determined by the same formula used for Figure 1. […]
The negative control measured the binding of a dinitrophenol specific antibody to the antigen mentioned above in the presence of the corresponding metal ions. […]

Work on [Cl-].[Cl-].[Mg+2] [magnesium chloride] yielded a Percent inhibition of roughly 50%.
